The test relates to Escherichia coli ATCC 25922. Kind of test: 50% growth inhibitory concentration (IC50) determination, Iso-Sensitest broth dilution. It is filed as cell-based. As to conditions: strain Escherichia coli ATCC 25922, 10-point broth dilution, optical density at 600 nm over 16 h, read-out: Escherichia coli growth inhibition IC50. In a few lines: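 Growth was tracked as optical density at 600 nm every 20 minutes for 16 h at 35±2° C. Compounds from DMSO stocks were serially diluted twofold over 10 points (e.g. 50–0.097 μM final) in Iso-Sensitest broth. Inhibition computed in log-phase growth to give IC50.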
In general terms: Dilution methods test growth across graded concentrations, often in twofold steps.

Where [1] appears, read: Escherichia coli, ATCC25922, 16 h.

Molecules are shown by their SMILES. Counter-ions that a name gives are not always drawn. Like-named read-outs stand apart in the source and are kept apart here.

Experimental findings from patent US20230167127A1, “COMPOUNDS AND THEIR USE IN THE TREATMENT OF BACTERIAL INFECTION” (Hoffmann-La Roche Inc., priority 2020, published 2023) are described below.

`O=C1COc2ccc(N3CC(CCCNCC4Cc5cccc(Cl)c5C4)OC3=O)nc2N1` (stereo not shown) [Example 2, 6-[5-[3-[(4-chloro-2,3-dihydro-1H-inden-2-yl)methylamino]propyl]-2-oxo-1,3-oxazolidin-3-yl]-4H-pyrido[3,2-b][1,4]oxazin-3-one]: the IC50 (in general, the concentration that inhibits the measured activity by half) under setting [1] came out at 332 nM.
Same read-out and setting: the value for `NCCOc1cc2c(c(Cl)n1)CC(CNCCC1CN(c3ccc4c(n3)NC(=O)CO4)C(=O)O1)C2` (stereo not shown) [Example 126, 6-[5-[2-[[3-(2-aminoethoxy)-1-chloro-6,7-dihydro-5H-cyclopenta[c]pyridin-6-yl]methylamino]ethyl]-2-oxo-1,3-oxazolidin-3-yl]-4H-pyrido[3,2-b][1,4]oxazin-3-one] was 260 nM; that for `COc1nc(C)c2c(c1F)CC(CNCCC1CN(c3cnc4c(n3)NC(=O)CO4)C(=O)O1)C2` (stereo not shown) [Example 397, 6-[5-[2-[(4-fluoro-3-methoxy-1-methyl-6,7-dihydro-5H-cyclopenta[c]pyridin-6-yl)methylamino]ethyl]-2-oxo-1,3-oxazolidin-3-yl]-4H-pyrazino[2,3-b][1,4]oxazin-3-one] was less than 97.7 nM.
As for `Cc1ncc(C#N)c2c1CC(NCCCc1cn(-c3cnc4c(n3)NC(=O)CO4)c(=O)o1)C2` (single isomer, unassigned; enantiomer a) [Example 321, 1-Methyl-6-[3-[2-oxo-3-(3-oxo-4H-pyrazino[2,3-b][1,4]oxazin-6-yl)-1,3-oxazol-5-yl]propylamino]-6,7-dihydro-5H-cyclopenta[c]pyridine-4-carbonitrile, Enantiomer A], the IC50 under setting [1] is less than 97.7 nM.
The same measure, in the same setting: the value for `N#Cc1c(OC2COC2)ccc2c1CC(CNCCC1CN(c3ccc4c(n3)NC(=O)CO4)C(=O)O1)C2` (stereo not shown) [Example 63, 5-(oxetan-3-yloxy)-2-[[2-[2-oxo-3-(3-oxo-4H-pyrido[3,2-b][1,4]oxazin-6-yl)-1,3-oxazolidin-5-yl]ethylamino]methyl]-2,3-dihydro-1H-indene-4-carbonitrile] was less than 97.7 nM; that for `NC(CN1CC2(C1)CN(c1ccc3c(n1)NC(=O)CO3)C(=O)O2)C1Cc2cccc(Cl)c2C1` (stereo not shown) [Example 159, 6-[2-[2-amino-2-(4-chloro-2,3-dihydro-1H-inden-2-yl)ethyl]-6-oxo-5-oxa-2,7-diazaspiro[3.4]octan-7-yl]-4H-pyrido[3,2-b][1,4]oxazin-3-one; formic acid] was 170 nM; that for `O=C1COc2ncc(N3CC(CCNCC4Cc5cc(O)cc(F)c5C4)OC3=O)nc2N1` (stereo not shown) [Example 317, 6-[5-[2-[(4-Fluoro-6-hydroxy-2,3-dihydro-1H-inden-2-yl)methylamino]ethyl]-2-oxo-1,3-oxazolidin-3-yl]-4H-pyrazino[2,3-b][1,4]oxazin-3-one] was less than 97.7 nM.
On the same count and under the same terms, the figure for `O=C1COc2ccc(N3CC(CNCCC4Cc5cccc(Cl)c5C4)OC3=O)nc2N1` (stereo not shown) [Example 26, 6-[5-[ [2-(4-chloro-2,3-dihydro-1H-inden-2-yl)ethylamino]methyl]-2-oxo-1,3-oxazolidin-3-yl]-4H-pyrido[3,2-b][1,4]oxazin-3-one; formic acid] is less than 97.7 nM.
The same measure, in the same setting: the figure for `Cc1ncc(F)c2c1CC(CNCCC1(C)CN(c3cnc4c(n3)NC(=O)CO4)C(=O)O1)C2` (stereo not shown) [Example 340, 6-[5-[2-[(4-fluoro-1-methyl-6,7-dihydro-5H-cyclopenta[e]pyridin-6-yl)methylamino]ethyl]-5-methyl-2-oxo-1,3-oxazolidin-3-yl]-4H-pyrazino[2,3-b][1,4]oxazin-3-one] is 358 nM.
As for `N#Cc1c(OCCN2CCNCC2)ccc2c1CC(CNCCC1CN(c3ccc4c(n3)NC(=O)CO4)C(=O)O1)C2` (stereo not shown) [Example 143, 2-[[2-[2-oxo-3-(3-oxo-4H-pyrido[3,2-b][1,4]oxazin-6-yl)-1,3-oxazolidin-5-yl]ethylamino]methyl]-5-(2-piperazin-1-ylethoxy)-2,3-dihydro-1H-indene-4-carbonitrile; formic acid], under setting [1], the concentration for half-maximal inhibition (IC50) was 833 nM.
Still for that read-out and setting: the figure for `CNC(=O)COc1cc(F)c2c(c1F)CC(CNCCC1CN(c3ccc4c(n3)NC(=O)CO4)C(=O)O1)C2` (stereo not shown) [Example 394, 2-[[4,7-difluoro-2-[[2-[2-oxo-3-(3-oxo-4H-pyrido[3,2-b][1,4]oxazin-6-yl)-1,3-oxazolidin-5-yl]ethylamino]methyl]-2,3-dihydro-1H-inden-5-yl]oxy]-N-methylacetamide] is less than 97.7 nM; for `CC(C)(N)COc1cc(F)c2c(c1F)CC(CNCCC1CN(c3cnc4c(n3)NC(=O)CO4)C(=O)O1)C2` (stereo not shown) [Example 411, 6-[5-[2-[[5-(2-amino-2-methylpropoxy)-4,7-difluoro-2,3-dihydro-1H-inden-2-yl]methylamino]ethyl]-2-oxo-1,3-oxazolidin-3-yl]-4H-pyrazino[2,3-b][1,4]oxazin-3-one; formic acid] it is less than 97.7 nM; for `Cc1ncc(F)c2c1CC(N)(CCNCC1CN(c3ccc4c(n3)NC(=O)CO4)C(=O)O1)C2` (stereo not shown) [Example 280, 6-[5-[[2-(6-amino-4-fluoro-1-methyl-5,7-dihydrocyclopenta[c]pyridin-6-yl)ethylamino]methyl]-2-oxo-1,3-oxazolidin-3-yl]-4H-pyrido[3,2-b][1,4]oxazin-3-one] it is 844 nM.
On to `Cc1nc(C)c2c(c1C)CC(CNCCC1CN(c3ccc4c(n3)NC(=O)CO4)C(=O)O1)C2` (stereo not shown) [Example 93, 6-[2-oxo-5-[2-[(1,3,4-trimethyl-6,7-dihydro-5H-cyclopenta[c]pyridin-6-yl)methylamino]ethyl]-1,3-oxazolidin-3-yl]-4H-pyrido[3,2-b][1,4]oxazin-3-one], for which the IC50 under setting [1] was less than 97.7 nM.
As for `CS(=O)(=O)N1CC(Oc2cc(F)c3c(c2)CC(CNCCC2CN(c4cnc5c(n4)NC(=O)CO5)C(=O)O2)C3)C1` (stereo not shown) [Example 355, 6-[5-[2-[[4-fluoro-6-(1-methylsalfonylazetidin-3-yl)oxy-2,3-dihydro-1H-inden-2-yl]methylamino]ethyl]-2-oxo-1,3-oxazolidin-3-yl]-4H-pyrazino[2,3-b][1,4]oxazin-3-one hydrochloride], the IC50 under setting [1] was found to be 162 nM.
Same read-out and setting: the figure for `N#Cc1cccc2c1CC(NCC(O)CC1CN(c3cnc4c(n3)NC(=O)CO4)C(=O)O1)C2` (single isomer, unassigned; isomer a) [Example 81, 2-[[2-hydroxy-3-[2-oxo-3-(3-oxo-4H-pyrazino[2,3-b][1,4]oxazin-6-yl)-1,3-oxazolidin-5-yl]propyl]amino]-2,3-dihydro-1H-indene-4-carbonitrile, Isomer A; formic acid] is 164 nM; for `O=C1COc2ncc(N3CC(CCNCC4Cc5cc(OCCN6CCOC6=O)cc(F)c5C4)OC3=O)nc2N1` (stereo not shown) [Example 304, 6-[5-[2-[[4-fluoro-6-[2-(2-oxo-1,3-oxazolidin-3-yl)ethoxy]-2,3-dihydro-1H-inden-2-yl]methylamino]ethyl]-2-oxo-1,3-oxazolidin-3-yl]-4H-pyrazino[2,3-b][1,4]oxazin-3-one; formic acid] it is 446 nM.
The same measure, in the same setting: the value for `Cc1ncc(F)c2c1CC(CN(C)CCC1CN(c3cnc4c(n3)NC(=O)CO4)C(=O)O1)C2` (stereo not shown) [Example 376, 6-[5-[2-[(4-Fluoro-1-methyl-6,7-dihydro-5H-cyclopenta[c]pyridin-6-yl)methyl-methylamino]ethyl]-2-oxo-1,3-oxazolidin-3-yl]-4H-pyrazino[2,3-b][1,4]oxazin-3-one] was less than 97.7 nM; that for `O=C1COc2ncc(N3CC(CCNCC4Cc5ccnc(Cl)c5C4)OC3=O)nc2N1` (stereo not shown) [Example 38, 6-[5-[2-[(1-chloro-6,7-dihydro-5H-cyclopenta[c]pyridin-6-yl)methylamino]ethyl]-2-oxo-1,3-oxazolidin-3-yl]-4H-pyrazino[2,3-b][1,4]oxazin-3-one] was less than 97.7 nM.
Still for that read-out and setting: the figure for `Cc1nc(OCC2CC(=O)N(C)C2)c(C)c2c1CC(CNCCC1CN(c3ccc4c(n3)NC(=O)CO4)C(=O)O1)C2` (stereo not shown) [Example 103, 6-[5-[2-[[1,4-dimethyl-3-[(1-methyl-5-oxopyrrolidin-3-yl)methoxy]-6,7-dihydro-5H-cyclopenta[c]pyridin-6-yl]methylamino]ethyl]-2-oxo-1,3-oxazolidin-3-yl]-4H-pyrido[3,2-b][1,4]oxazin-3-one] is 1690 nM; for `O=C1COc2ccc(N3CC(CCCNC4Cc5ccc(F)cc5C4)OC3=O)nc2N1` (stereo not shown) [Example 12, 6-[5-[3-[(5-fluoro-2,3-dihydro-1H-inden-2-yl)amino]propyl]-2-oxo-1,3-oxazolidin-3-yl]-4H-pyrido[3,2-b][1,4]oxazin-3-one; formic acid] it is 471 nM.
Turning to `Nc1nnnn1CCOc1cc(F)c2c(c1)CC(CNCCC1CN(c3cnc4c(n3)NC(=O)CO4)C(=O)O1)C2` (stereo not shown) [Example 294, 6-[5-[2-[[6-[2-(5-aminotetrazol-1-yl)ethoxy]-4-fluoro-2,3-dihydro-1H-inden-2-yl]methylamino]ethyl]-2-oxo-1,3-oxazolidin-3-yl]-4H-pyrazino[2,3-b][1,4]oxazin-3-one; formic acid], the 50% inhibitory concentration (IC50) under setting [1] amounted to 727 nM.
For `Cc1ncc(F)c2c1CC(CN1CCC3(CN(c4ccc5c(n4)NC(=O)CO5)C(=O)O3)C(CN)C1)C2` (racemic) [Example 251, 6-[rac-5,6-cis-6-(Aminomethyl)-8-[(4-fluoro-1-methyl-6,7-dihydro-5H-cyclopenta[c]pyridin-6-yl)methyl]-2-oxo-1-oxa-3,8-diazaspiro[4.5]decan-3-yl]-4H-pyrido[3,2-b][1,4]oxazin-3-one], the IC50 stood at 679 nM.
`N#Cc1cccc2c1CC(CNCCC1(CN)CN(c3ccc4c(n3)NC(=O)CO4)C(=O)O1)C2` (stereo not shown) [Example 243, 2-[[2-[5-(aminomethyl)-2-oxo-3-(3-oxo-4H-pyrido[3,2-b][1,4]oxazin-6-yl)-1,3-oxazolidin-5-yl]ethylamino]methyl]-2,3-dihydro-1H-indene-4-carbonitrile]: the IC50 under setting [1] worked out at 199 nM.
Take `NC1(COc2cc(Cl)c3c(c2)CC(NCCCC2CN(c4ccc5c(n4)NC(=O)CO5)C(=O)O2)C3)CC1` (stereo not shown) [Example 180, 6-[5-[3-[[6-[(1-aminocyclopropyl)methoxy]-4-chloro-2,3-dihydro-1H-inden-2-yl]amino]propyl]-2-oxo-1,3-oxazolidin-3-yl]-4H-pyrido[3,2-b][1,4]oxazin-3-one]: under setting [1], the IC50 was less than 97.7 nM.
